Counter-ions that a name gives are not always drawn.
How the values were obtained:
human RORγt LBD = molecular target: T1, human RORγt LBD (Homo sapiens, UniProt P51449); test: RORγt (LBD) reporter assay in HEK293T cells; assay type: cell-based; conditions: for inhibition at 6 µM: HEK-293T, read-out: RORγt (LBD) Reporter Assay, % inhibition @ 6 μM, 6 μM compound; for RORγt (LBD) Reporter Assay, % inhibition @ 6 μM: 6 μM compound
T1 construct: expressed in transfected cells; host or cells: HEK293T
T1 sequence (P51449 258-518): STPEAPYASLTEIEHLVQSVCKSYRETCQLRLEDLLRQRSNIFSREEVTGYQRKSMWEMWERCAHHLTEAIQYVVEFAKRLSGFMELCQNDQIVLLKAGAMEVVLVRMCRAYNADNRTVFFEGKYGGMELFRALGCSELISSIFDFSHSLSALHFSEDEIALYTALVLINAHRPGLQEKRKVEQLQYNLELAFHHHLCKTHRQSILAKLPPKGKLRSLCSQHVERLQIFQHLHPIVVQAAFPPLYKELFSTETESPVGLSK
Excerpt: RORγt (LBD) Reporter Assay
Cells used in the assay were co-transfected with two constructs. The first construct, pBIND-RORγt LBD, contained the wild type human RORγt LBD fused to the DNA binding domain of the GAL4 protein. The second construct, pGL4.31 (Promega Cat no. C935A), contained multiple GAL4 responsive DNA elements upstream of firefly luciferase. […] The mutant construct was called pBIND-RORγt-AF2.
The pBIND vector contains the GAL4 DNA Binding Domain (GAL4 DBD) and the renilla luciferase gene under control of the SV40 promoter. Renilla luciferase expression serves as a control for transfection efficiency and cell viability.
The reporter assay was performed by transiently transfecting HEK293T cells with 5 μg of pBIND-RORγt LBD or pBIND-RORγt LBD-AF2 and 5 μg pGL4.31 (Promega Cat no. C935A) using Fugene 6 (Invitrogen Cat no. E2691) at a 1:6 ratio of DNA:Fugene 6 in a T-75 flask in which cells were at least 80% confluent. Twenty four hours after bulk transfection, cells were plated into 96-well plates at 50,000 cells/well in phenol-red free DMEM containing 5% Lipid Reduced FCS and Pen/Strep. Six hours after plating, cells were treated with compounds for 24 hours. Media was removed and cells were lysed with 50 μL 1× Glo Lysis Buffer (Promega). Dual Glo Luciferase Reagent (50 μL/well) was then added and firefly luciferase luminescence was read on an Envision after a ten minute incubation. Finally, Stop and Glo reagent (50 μL/well) was added and renilla luciferase luminescence was read on an Envision after a ten minute incubation. […] Agonist compounds increase RORγt-driven luciferase expression, and antagonist or inverse agonist compounds decrease luciferase expression.

[1] = molecular target: T2, human RORγt ligand binding domain (RORγt LBD) (Homo sapiens, UniProt P51449); test: RORγt ThermoFluor assay (ligand binding affinity from protein thermal stability)
T2 construct: His-tag (N); TurboTEV protease cleavage site (ENLYFQG) (N); made in house; host or cells: E. coli (pHIS1, modified pET vector)
T2 sequence (P51449 with tags, fused parts or gaps): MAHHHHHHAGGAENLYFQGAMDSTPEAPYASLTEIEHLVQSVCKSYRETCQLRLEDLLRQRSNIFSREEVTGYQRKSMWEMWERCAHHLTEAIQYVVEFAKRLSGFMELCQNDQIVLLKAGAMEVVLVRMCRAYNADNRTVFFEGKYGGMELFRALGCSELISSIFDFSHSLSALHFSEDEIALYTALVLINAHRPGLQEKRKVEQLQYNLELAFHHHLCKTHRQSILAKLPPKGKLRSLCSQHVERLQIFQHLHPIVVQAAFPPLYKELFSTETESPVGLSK
Procedure: This approach is applicable to a wide variety of systems, and rigorous in theoretical interpretation through quantitation of equilibrium binding constants (KD).
The shift in the melting point described as a ΔTm is proportional to the concentration and affinity of the ligand.
RORγt ThermoFluor® Assay Construct
Protein and compound solutions are dispensed into black 384-well polypropylene PCR microplates (Abgene) and overlayed with silicone oil (1 μL, Fluka, type DC 200) to prevent evaporation.
Bar-coded assay plates are robotically loaded onto a thermostatically controlled PCR-type thermal block and then heated at a typical ramp-rate of 1° C./min for all experiments. Fluorescence was measured by continuous illumination with UV light (Hamamatsu LC6) supplied via fiber optic and filtered through a band-pass filter (380-400 nm; >6 OD cutoff). Fluorescence emission of the entire 384-well plate was detected by measuring light intensity using a CCD camera (Sensys, Roper Scientific) filtered to detect 500±25 nm, resulting in simultaneous and independent readings of all 384 wells. Images were collected at each temperature, and the sum of the pixel intensity in a given area of the assay plate was recorded versus temperature. Reference wells contained RORγt without compounds, and the assay conditions were as follows: • 0.065 mg/mL RORγt • 60 μM 1,8-ANS • 100 mM Hepes, pH 7.0 • 10 mM NaCl • 2.5 mM GSH • 0.002% Tween-20
Project compounds were arranged in a pre-dosed mother plate (Greiner Bio-one) wherein compounds are serially diluted in 100% DMSO by 1:2 from a high concentration of 10 mM over 12 columns within a series (column 12 is a reference well containing DMSO, no compound). The compounds were robotically dispensed directly into assay plates (1×=[…]) using a Hummingbird capillary liquid handling instrument (Digilab). Following compound dispense, protein and dye in buffer was added to achieve the final assay volume of 3 μL, followed by 1 μL of silicone oil.

SMILES	IC50 (human RORγt LBD)	inhibition at 6 µM (human RORγt LBD)	Kd [1]	RORγt (LBD) Reporter Assay, % inhibition @ 6 μM (human RORγt LBD)
Cn1cncc1C(O)(c1ccc(C(F)(F)F)nc1)c1ccc2nc(-n3cccn3)c(Cc3ccccc3)c(C#N)c2c1 (single isomer, unassigned) [Example 114c, 3-Benzyl-6-(hydroxy(1-methyl-1H-imidazol-5-yl)(6-(trifluoromethyl)pyridin-3-yl)methyl)-2-(1H-pyrazol-1-yl)quinoline-4-carbonitrile•TFA]	1.9 µM	–	0.71 µM	–
Cn1cncc1C(O)(c1ccc(C(F)(F)F)nc1)c1ccc2nc(-c3nccn3C)c(Cc3ccccc3)c(Cl)c2c1 (single isomer, unassigned) [Example 113c, (3-Benzyl-4-chloro-2-(1-methyl-1H-imidazol-2-yl)quinolin-6-yl)(1-methyl-1H-imidazol-5-yl)(6-(trifluoromethyl)pyridin-3-yl)methanol•TFA]	~2 µM	–	1.2 µM	–
COc1nc2ccc(C(O)(c3ccc(C)nc3C)c3cnnn3C)cc2c(C#N)c1Cc1ccc(F)cc1 (single isomer, unassigned) [Example 49b, 6-((2,6-Dimethylpyridin-3-yl)(hydroxy)(1-methyl-1H-1,2,3-triazol-5-yl)methyl)-3-(4-fluorobenzyl)-2-methoxyquinoline-4-carbonitrile]	~3 µM	–	0.41 µM	62%
CCN(CC)c1nc2ccc(C(O)(c3ccc(Cl)cc3)c3cncn3C)cc2c(C#N)c1Cc1ccc(-n2cccn2)cc1 (single isomer, unassigned) [Example 154b, 3-(4-(1H-pyrazol-1-yl)benzyl)-6-((4-chlorophenyl)(hydroxy)(1-methyl-1H-imidazol-5-yl)methyl)-2-(diethylamino)quinoline-4-carbonitrile]	–	101%	–	–
COc1c(Cc2ccccc2)c(C(F)(F)F)nc2ccc(C(O)(c3ccc(Cl)cc3)c3cncn3C)cc12 (single isomer, unassigned) [Example 101c, (3-Benzyl-4-methoxy-2-(trifluoromethyl)quinolin-6-yl)(4-chlorophenyl)(1-methyl-1H-imidazol-5-yl)methanol]	–	–	–	89%
COc1nc2ccc(C(O)(c3oc(C)nc3C)c3cnnn3C)cc2c(Cl)c1Cc1ccc(C(F)(F)F)cc1 (single isomer, unassigned) [Example 156b, (4-chloro-2-methoxy-3-(4-(trifluoromethyl)benzyl)quinolin-6-yl)(2,4-dimethyloxazol-5-yl)(1-methyl-1H-1,2,3-triazol-5-yl)methanol]	0.087 µM	98%	0.075 µM	–
COc1nc2ccc(C(O)(c3ccc(C)nc3C)c3cnnn3C)cc2c(Cl)c1Cc1ccc(F)cc1 (single isomer, unassigned) [Example 48b, (4-Chloro-3-(4-fluorobenzyl)-2-methoxyquinolin-6-yl)(2,6-dimethylpyridin-3-yl)(1-methyl-1H-1,2,3-triazol-5-yl)methanol]	~6 µM	53%	0.25 µM	–
COc1c(Cc2ccccc2)c(C(F)(F)F)nc2ccc(C(O)(c3ccc(C(F)(F)F)nc3)c3cncn3C)cc12 (stereo not drawn) [Example 106a, (3-Benzyl-4-methoxy-2-(trifluoromethyl)quinolin-6-yl)(1-methyl-1H-imidazol-5-yl)(6-(trifluoromethyl)pyridin-3-yl)methanol•TFA]	~4 µM	–	–	–
CCN(CC)c1nc2ccc(C(O)(c3ccc(Cl)cc3)c3cncn3C)cc2c(C#N)c1Cc1ccc(-n2cccn2)cc1 (single isomer, unassigned) [Example 154c, 3-(4-(1H-pyrazol-1-yl)benzyl)-6-((4-chlorophenyl)(hydroxy)(1-methyl-1H-imidazol-5-yl)methyl)-2-(diethylamino)quinoline-4-carbonitrile]	–	73%	–	–

Second part, the molecule after the results:

IC50 (human RORγt LBD)	inhibition at 6 µM (human RORγt LBD)	Kd [1]	RORγt (LBD) Reporter Assay, % inhibition @ 6 μM (human RORγt LBD)	SMILES
0.052 µM	84%	0.0017 µM	–	COc1nc2ccc(C(O)(c3ccc(C)nc3C)c3cnnn3C)cc2c(C#N)c1Cc1ccc(F)cc1 (stereo not drawn) [Example 49a, 6-((2,6-Dimethylpyridin-3-yl)(hydroxy)(1-methyl-1H-1,2,3-triazol-5-yl)methyl)-3-(4-fluorobenzyl)-2-methoxyquinoline-4-carbonitrile]
0.45 µM	61%	0.00085 µM	–	COc1nc2ccc(C(O)(c3ccc(C)nc3C)c3cnnn3C)cc2c(Cl)c1Cc1ccc(F)cc1 (stereo not drawn) [Example 48a, (4-Chloro-3-(4-fluorobenzyl)-2-methoxyquinolin-6-yl)(2,6-dimethylpyridin-3-yl)(1-methyl-1H-1,2,3-triazol-5-yl)methanol]
0.22 µM	–	0.13 µM	–	CNC(c1ccc2nc(OC)c(Cc3ccc(C(F)(F)F)cc3)c(Cl)c2c1)(c1ccc(C)nc1C)c1cnnn1C (single isomer, unassigned) [Example 121c, 1-(4-Chloro-2-methoxy-3-(4-(trifluoromethyl)benzyl)quinolin-6-yl)-1-(2,6-dimethylpyridin-3-yl)-N-methyl-1-(1-methyl-1H-1,2,3-triazol-5-yl)methanamine•TFA]
0.11 µM	–	0.017 µM	–	CC(=O)N1CCC(C(O)(c2ccc3nc(C(F)(F)F)c(Cc4ccccc4)c(Cl)c3c2)c2cncn2C)CC1 (single isomer, unassigned) [Example 115c, 1-(4-((3-Benzyl-4-chloro-2-(trifluoromethyl)quinolin-6-yl)(hydroxy)(1-methyl-1H-imidazol-5-yl)methyl)piperidin-1-yl)ethanone•TFA]
1.4 µM	–	> 83 µM	–	COc1nc2ccc(C(c3ccc(C)nc3C)(c3cnnn3C)N(C)C)cc2c(Cl)c1Cc1ccc(C(F)(F)F)cc1 (single isomer, unassigned) [Example 122b, 1-(4-Chloro-2-methoxy-3-(4-(trifluoromethyl)benzyl)quinolin-6-yl)-1-(2,6-dimethylpyridin-3-yl)-N,N-dimethyl-1-(1-methyl-1H-1,2,3-triazol-5-yl)methanamine•TFA]
0.0072 µM	–	0.00048 µM	–	COc1nc2ccc(C(O)(c3cnnn3C)c3cnc(C)n3C)cc2c(Cl)c1Cc1ccc(F)cc1 (single isomer, unassigned) [Example 65c]
0.41 µM	–	0.37 µM	–	CNC(c1ccc2nc(OC)c(Cc3ccc(C(F)(F)F)cc3)c(Cl)c2c1)(c1ccc(C)nc1C)c1cnnn1C (single isomer, unassigned) [Example 121b, 1-(4-Chloro-2-methoxy-3-(4-(trifluoromethyl)benzyl)quinolin-6-yl)-1-(2,6-dimethylpyridin-3-yl)-N-methyl-1-(1-methyl-1H-1,2,3-triazol-5-yl)methanamine•TFA]
